From patent publication US6166290A, “Glutathione-S-conjugate transport in plants” (The Trustees of the University of Pennsylvania, priority 1997, dated 2000)
Where “and” joins values, the source holds several entries; their conditions need not be identical. Equal entries are not always repeated.

Legend:
AtMRP1 = target: T1, AtMRP1 (Arabidopsis thaliana, UniProt Q9C8G9); assay: AtMRP1-dependent uptake by membrane vesicles from pYES3-AtMRP1-transformed DTY168 cells; format: biochemical
T1 construct: S. cerevisiae DTY168 (ycf1 null) vacuolar-enriched membrane vesicles
T1 sequence (Q9C8G9 whole entry): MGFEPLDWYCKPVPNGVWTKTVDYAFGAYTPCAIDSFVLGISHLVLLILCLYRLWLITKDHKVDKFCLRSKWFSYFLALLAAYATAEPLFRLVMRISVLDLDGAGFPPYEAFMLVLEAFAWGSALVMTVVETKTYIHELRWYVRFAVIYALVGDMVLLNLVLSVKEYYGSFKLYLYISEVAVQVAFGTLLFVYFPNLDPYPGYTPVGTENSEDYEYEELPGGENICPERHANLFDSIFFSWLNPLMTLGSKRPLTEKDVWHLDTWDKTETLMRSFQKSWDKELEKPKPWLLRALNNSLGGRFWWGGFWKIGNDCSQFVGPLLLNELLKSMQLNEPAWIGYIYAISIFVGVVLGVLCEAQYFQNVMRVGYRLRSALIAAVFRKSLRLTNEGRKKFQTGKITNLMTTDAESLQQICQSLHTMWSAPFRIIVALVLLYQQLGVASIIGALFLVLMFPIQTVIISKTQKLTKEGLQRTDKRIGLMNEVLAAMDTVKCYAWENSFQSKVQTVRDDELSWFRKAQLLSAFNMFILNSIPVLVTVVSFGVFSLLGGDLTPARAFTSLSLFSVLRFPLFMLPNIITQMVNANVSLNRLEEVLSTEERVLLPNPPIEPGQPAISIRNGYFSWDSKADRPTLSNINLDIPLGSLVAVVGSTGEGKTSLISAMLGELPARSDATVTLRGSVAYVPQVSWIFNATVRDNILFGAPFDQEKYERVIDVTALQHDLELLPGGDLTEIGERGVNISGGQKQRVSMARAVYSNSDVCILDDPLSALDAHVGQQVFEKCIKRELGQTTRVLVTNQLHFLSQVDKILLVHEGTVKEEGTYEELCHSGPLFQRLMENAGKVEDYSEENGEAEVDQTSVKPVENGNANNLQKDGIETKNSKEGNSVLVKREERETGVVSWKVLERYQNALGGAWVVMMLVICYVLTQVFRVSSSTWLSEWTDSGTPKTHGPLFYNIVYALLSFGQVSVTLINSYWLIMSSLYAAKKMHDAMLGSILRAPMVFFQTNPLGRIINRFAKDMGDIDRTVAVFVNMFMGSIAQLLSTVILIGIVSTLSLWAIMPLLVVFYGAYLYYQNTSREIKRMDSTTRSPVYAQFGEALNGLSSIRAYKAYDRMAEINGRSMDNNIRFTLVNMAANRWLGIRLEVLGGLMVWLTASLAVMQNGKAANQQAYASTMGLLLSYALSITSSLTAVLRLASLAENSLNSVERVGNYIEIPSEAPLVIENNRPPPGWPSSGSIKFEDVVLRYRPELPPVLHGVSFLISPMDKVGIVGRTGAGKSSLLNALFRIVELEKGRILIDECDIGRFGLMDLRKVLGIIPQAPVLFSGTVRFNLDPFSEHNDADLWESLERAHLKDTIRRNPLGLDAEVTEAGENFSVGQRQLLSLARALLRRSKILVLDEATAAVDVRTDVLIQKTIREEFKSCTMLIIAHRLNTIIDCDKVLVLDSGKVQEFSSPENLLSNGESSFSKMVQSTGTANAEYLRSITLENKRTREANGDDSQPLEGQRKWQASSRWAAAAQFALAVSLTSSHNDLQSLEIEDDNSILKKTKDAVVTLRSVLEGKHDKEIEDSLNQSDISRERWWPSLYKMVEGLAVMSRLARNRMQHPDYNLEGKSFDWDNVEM
Procedure: S. cerevisiae strain DTY168 (MATα his6, leu2-3, -112, ura3-52 ycf1::hisG) was transformed with pYES3-AtMRP1 or empty vector lacking the AtMRP1 insert (pYES3) by the LiOAc/PEG method (Giest et al., 1991, Yeast 7:253-263) and selected for uracil prototrophy by plating on AHC medium containing tryptophan (Kim et al., 1994, supra).
For the preparation of membrane vesicles, 15 ml volumes of stationary phase cultures of the transformants were diluted into 1 L of fresh AHC medium and grown to an OD600 nm of about 1.2. Membrane vesicles were purified as described herein and in Kim et al. (1995, supra).
[…] μl reaction volumes containing 3 mM ATP, 3 mM MgSO4, 5 μM gramicidin-D, 10 mM creatine phosphate, 16 units/ml creatine kinase, 50 mM KCl, 1 mg/ml BSA, 400 mM sorbitol, 25 mM Tris-Mes ([…]).
Cells were grown and vacuolar membrane-enriched vesicles were prepared as described (Kim et al., 1995, J Biol. Chem. 270:2630-2635-). […] Uptake was terminated by the addition of 1 ml ice-cold wash medium (400 mM sorbitol/3 mM Tris-Mes, pH 8.0) and vacuum filtration of the suspension through prewetted Millipore HA cellulose nitrate filters (pore size 0.45 μm). The filters were rinsed twice with wash medium, and the retained radioactivity was determined by liquid scintillation counting. Nonenergized uptake was estimated by the same procedure except that ATP was omitted from the uptake medium.

[1] = target: T2, YCF1 (vacuolar membrane vesicles purified from DTY165 cells) (Saccharomyces cerevisiae, UniProt P39109); assay: biochemical; format: biochemical; conditions: read-out: Ki(DNP-GS) for inhibition of Cd.GS2 uptake
T2 construct: endogenous in cells; host or cells: S. cerevisiae DTY165 (wild type YCF1), vacuolar membrane vesicles
T2 sequence (P39109 whole entry): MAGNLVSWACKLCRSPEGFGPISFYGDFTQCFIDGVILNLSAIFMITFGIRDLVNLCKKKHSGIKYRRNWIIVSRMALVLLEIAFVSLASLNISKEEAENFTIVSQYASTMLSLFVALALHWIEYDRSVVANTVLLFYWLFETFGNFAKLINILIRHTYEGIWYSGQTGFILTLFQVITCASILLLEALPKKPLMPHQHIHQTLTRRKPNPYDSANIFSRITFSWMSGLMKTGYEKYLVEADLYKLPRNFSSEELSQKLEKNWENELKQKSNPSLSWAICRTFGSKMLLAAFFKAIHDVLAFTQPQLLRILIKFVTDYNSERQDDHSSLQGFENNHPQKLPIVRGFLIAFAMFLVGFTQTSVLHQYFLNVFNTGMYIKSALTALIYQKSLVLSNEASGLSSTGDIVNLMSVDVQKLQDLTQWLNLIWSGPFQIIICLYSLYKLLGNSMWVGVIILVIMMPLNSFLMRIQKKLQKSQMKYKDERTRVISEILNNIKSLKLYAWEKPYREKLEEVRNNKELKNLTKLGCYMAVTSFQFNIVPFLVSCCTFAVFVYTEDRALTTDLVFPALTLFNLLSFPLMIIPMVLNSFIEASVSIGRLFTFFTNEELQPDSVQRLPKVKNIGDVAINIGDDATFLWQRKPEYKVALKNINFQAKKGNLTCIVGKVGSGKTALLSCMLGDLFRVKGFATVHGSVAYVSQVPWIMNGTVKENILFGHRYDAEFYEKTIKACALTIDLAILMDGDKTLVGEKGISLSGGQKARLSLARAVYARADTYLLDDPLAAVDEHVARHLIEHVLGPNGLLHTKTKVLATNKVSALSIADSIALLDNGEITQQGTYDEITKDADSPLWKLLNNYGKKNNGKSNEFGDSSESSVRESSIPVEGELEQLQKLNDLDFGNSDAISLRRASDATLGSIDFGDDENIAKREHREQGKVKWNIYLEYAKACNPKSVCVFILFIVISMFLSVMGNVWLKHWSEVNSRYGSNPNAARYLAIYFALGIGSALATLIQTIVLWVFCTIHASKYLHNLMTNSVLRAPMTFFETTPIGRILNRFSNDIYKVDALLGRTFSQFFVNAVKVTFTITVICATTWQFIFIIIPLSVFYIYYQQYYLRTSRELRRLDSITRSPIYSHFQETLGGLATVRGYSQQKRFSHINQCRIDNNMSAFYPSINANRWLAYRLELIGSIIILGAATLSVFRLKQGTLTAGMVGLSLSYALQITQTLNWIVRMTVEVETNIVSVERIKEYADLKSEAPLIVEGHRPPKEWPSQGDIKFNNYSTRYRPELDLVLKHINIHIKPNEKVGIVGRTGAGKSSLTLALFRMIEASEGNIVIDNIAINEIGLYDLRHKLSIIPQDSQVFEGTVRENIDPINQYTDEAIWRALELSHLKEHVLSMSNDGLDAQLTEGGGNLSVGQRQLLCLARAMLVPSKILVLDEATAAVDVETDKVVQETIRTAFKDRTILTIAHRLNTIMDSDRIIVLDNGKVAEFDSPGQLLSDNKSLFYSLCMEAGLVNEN
Procedure, shortened: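 Vacuolar vesicles from wild-type (DTY165) or ycf1Δ (DTY167) yeast, washed free of DTT/EGTA into glycerol/Tris-Mes pH 8.0. MgATP-energized, uncoupler-insensitive uptake of 109Cd2+, GSH or purified radiolabeled Cd·GSn complexes measured at 25°C. Medium: 3 mM ATP/MgSO4, ATP-regenerating system, 5 μM gramicidin-D, Tris-Mes pH 8.0; washes contained 100 μM CdSO4.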

N[C@@H](CCC(=O)N[C@@H](CSc1ccc([N+](=O)[O-])cc1[N+](=O)[O-])C(=O)NCC(=O)O)C(=O)O [DNP-GS, S-(2,4-dinitrophenyl)glutathione]
increase in DNP-GS uptake following introduction of plasmid borne AtMRP1 (AtMRP1): ca. 4 nmol/mg/20 minutes
initial rate of DNP-GS uptake (AtMRP1; 61.3 μM DNP-GS): 0.4 nmol/mg/min
Vmax for AtMRP1-dependent uptake (AtMRP1; MgATP-dependent, uncoupler-insensitive): 6.0±1.7 nmol/mg/10 min and 8.2±1.6 nmol/mg/10 min
Ki [1]: 11.3 ± 2.1 µM
